According to patent publication US11214803B2, “Modulators of YAP1 expression” (Ionis Pharmaceuticals, Inc., priority 2019, dated 2022):
Strand notation (5' to 3'): a small letter for the sugar, then the base; units joined by * are phosphorothioate-linked, units joined directly phosphodiester-linked; [ ] holds rarer units or linkages, { } end groups; capitals alone tell only the bases. k = constrained ethyl (cEt); [5mC] = 5-methylcytosine; d = 2'-deoxy (DNA)

The substances below were run on Yap1 mRNA (assay: Antisense inhibition of human Yap1 in A-431 cells by cEt gapmers, single dose (Example 3, RTS36584)). Details: Table 8; A-431 cells, 5,000 cells per well, free uptake, 2,000 nM, approximately 48 hours; RTS36584; normalized to RIBOGREEN; Yap1 mRNA relative to untreated control cells.
Format: cell-based
How it was run: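 Single-dose free-uptake screen of 3-10-3 cEt gapmers in A-431 cells at 2,000 nM over about 48 h. Values are % untreated control Yap1 mRNA.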

| Substance | YAP1 (% UTC) |
| --- | --- |
| 958418 (antisense kA*kG*kA*dG*d[5mC]*d[5mC]*dT*dA*d[5mC]*d[5mC]*dT*dG*dA*k[5mC]*kA*kT) [Compound 958418] | 47 |
| 958395 (antisense k[5mC]*kT*kA*dA*d[5mC]*dA*dA*d[5mC]*d[5mC]*dT*dG*dG*dT*kT*kT*kG) [Compound 958395] | 114 |
| 958407 (antisense kA*kA*kT*dA*d[5mC]*dT*dG*dA*dT*d[5mC]*dT*dG*d[5mC]*kA*kG*k[5mC]) [Compound 958407] | 35 |
| 958412 (antisense kA*k[5mC]*k[5mC]*dT*dT*dT*dA*d[5mC]*d[5mC]*dA*dA*dA*dA*k[5mC]*kG*kA) [Compound 958412] | 49 |
| 958379 (antisense kG*k[5mC]*kG*d[5mC]*d[5mC]*d[5mC]*dG*d[5mC]*d[5mC]*d[5mC]*dG*d[5mC]*dA*k[5mC]*k[5mC]*kG) [Compound 958379] | 124 |
| 958370 (antisense k[5mC]*kT*kT*dT*dA*dT*d[5mC]*dT*dA*dG*d[5mC]*dT*dT*kG*kG*kT) [Compound 958370] | 7 |
| 958390 (antisense kG*k[5mC]*kG*dA*dA*dG*dG*dT*dG*d[5mC]*dG*dG*dA*kG*k[5mC]*kG) [Compound 958390] | 145 |
| 958349 (k[5mC]*k[5mC]*kG*dA*dG*dT*d[5mC]*d[5mC]*d[5mC]*d[5mC]*dG*d[5mC]*dG*kG*kA*k[5mC]; antisense) [Compound 958349] | 81 |
| 958393 (antisense kG*k[5mC]*k[5mC]*dT*dA*dT*dG*dA*dG*dT*d[5mC]*dA*dA*k[5mC]*k[5mC]*kT) [Compound 958393] | 89 |

Same assay, conditions: Table 9; A-431 cells, 5,000 cells per well, free uptake, 2,000 nM, approximately 48 hours; RTS36584; normalized to RIBOGREEN; Yap1 mRNA relative to untreated control cells

| Substance | YAP1 (% UTC) |
| --- | --- |
| 958576 (kG*kT*kG*dG*d[5mC]*dT*dA*d[5mC]*dT*dG*dG*d[5mC]*dA*kA*kA*kT; antisense) [Compound 958576] | 53 |
| 958706 (antisense kT*k[5mC]*kG*d[5mC]*dA*dT*dG*dG*d[5mC]*d[5mC]*dA*d[5mC]*dT*kG*k[5mC]*k[5mC]) [Compound 958706] | 112 |
| 958631 (antisense kT*kG*k[5mC]*dA*dA*dA*dT*dA*dG*dG*dA*dG*dA*kG*kG*kG) [Compound 958631] | 122 |

Same assay, conditions: Table 11; A-431 cells, 5,000 cells per well, free uptake, 2,000 nM oligonucleotide, approx. 48 hours; primer probe set RTS36584; Yap1 mRNA normalized to RIBOGREEN, percent of untreated control

| Substance | YAP1 (% UTC) |
| --- | --- |
| 958538 (kA*kT*k[5mC]*d[5mC]*dA*dG*dG*dG*dT*d[5mC]*dA*dA*dT*kT*kT*kT; antisense) [Compound 958538] | 10 |
| 958718 (antisense kG*kA*kA*d[5mC]*dA*d[5mC]*dT*dA*dT*dA*dG*d[5mC]*dT*kT*kG*kG) [Compound 958718] | 4 |
| 958638 (antisense kG*kT*kG*d[5mC]*dG*dG*dA*dG*d[5mC]*dG*d[5mC]*dG*d[5mC]*kG*kG*kA) [Compound 958638] | 127 |
| 958563 (kA*kG*k[5mC]*dT*dT*dT*dT*dG*d[5mC]*d[5mC]*dA*dG*dG*kA*kG*kA; antisense) [Compound 958563] | 3 |
| 958803 (antisense kG*kA*kT*dA*dA*dT*d[5mC]*dA*dT*d[5mC]*d[5mC]*dT*d[5mC]*kA*kG*k[5mC]) [Compound 958803] | 24 |

Same assay, conditions: Table 12; A-431 cells, 5,000 cells per well, free uptake, 2,000 nM modified oligonucleotide, approx. 48 hours; RTS36584; normalized to RIBOGREEN; Yap1 mRNA relative to untreated control cells

| Substance | YAP1 (% UTC) |
| --- | --- |
| 958659 (kG*kT*kT*dG*dT*dA*dT*dT*dA*d[5mC]*dT*d[5mC]*dT*k[5mC]*k[5mC]*kA; antisense) [Compound 958659] | 2 |

Same assay, conditions: Table 13; A-431 cells, 5,000 cells per well, free uptake, 2,000 nM modified oligonucleotide, approx. 48 hours; RTS36584; normalized to RIBOGREEN; Yap1 mRNA relative to untreated control cells

| Substance | YAP1 (% UTC) |
| --- | --- |
| 958645 (kG*k[5mC]*k[5mC]*d[5mC]*dA*dT*dA*dG*dT*dT*dG*dA*d[5mC]*kA*kG*kG; antisense) [Compound 958645] | 54 |
| 958520 (k[5mC]*kT*kA*d[5mC]*d[5mC]*dG*dT*dA*dT*dG*d[5mC]*d[5mC]*d[5mC]*kA*kG*kA; antisense) [Compound 958520] | 27 |
| 958615 (antisense kT*kG*kG*dT*d[5mC]*dT*dT*dG*dT*dT*d[5mC]*dT*dT*kA*kT*kG) [Compound 958615] | 3 |

Same assay, conditions: Table 26; Yap1 mRNA by 3-10-3 cEt gapmers targeting SEQ ID NO.: 1, and 2; percent of untreated control

| Substance | YAP1 (% UTC) |
| --- | --- |
| 1075788 (kT*k[5mC]*kT*dT*dA*dA*dG*dG*dA*dT*dT*dG*dG*k[5mC]*kT*kA; antisense) [compound 1075788] | 15 |

Same assay, conditions: Table 27; Yap1 mRNA by 3-10-3 cEt gapmers targeting SEQ ID NO.: 1, and 2; percent of untreated control

| Substance | YAP1 (% UTC) |
| --- | --- |
| 1074989 (antisense kG*kA*kG*dG*dG*dA*dA*dA*dG*d[5mC]*dA*d[5mC]*dG*k[5mC]*k[5mC]*k[5mC]) [compound 1074989] | 105 |
| 1074157 (kA*kG*k[5mC]*dG*dA*dG*dG*dG*d[5mC]*dT*dA*d[5mC]*dG*k[5mC]*k[5mC]*k[5mC]; antisense) [compound 1074157] | 103 |

Same assay, conditions: Table 28; Yap1 mRNA as percent of untreated control; 3-10-3 cEt gapmers targeting SEQ ID NO.: 1, and 2

| Substance | YAP1 (% UTC) |
| --- | --- |
| 1076078 (k[5mC]*kT*kT*dT*dA*dG*d[5mC]*d[5mC]*dT*d[5mC]*dT*dA*dT*kA*k[5mC]*k[5mC]; antisense) [compound 1076078] | 23 |
| 1074990 (antisense kG*k[5mC]*k[5mC]*dG*d[5mC]*dA*dA*dA*dG*dG*dA*dA*dA*kG*kG*kG) [compound 1074990] | 108 |
| 1076014 (kA*kA*kT*d[5mC]*dA*dA*d[5mC]*d[5mC]*dT*dA*dT*dG*dA*kG*kG*kT; antisense) [compound 1076014] | 98 |
| 1075086 (antisense kA*kG*kT*dT*dA*dT*dA*dG*dA*d[5mC]*dT*dT*dT*kG*kT*kA) [compound 1075086] | 25 |

Same assay, conditions: Table 29; Yap1 mRNA as percent of untreated control; 3-10-3 cEt gapmers targeting SEQ ID NO.: 1, and 2

| Substance | YAP1 (% UTC) |
| --- | --- |
| 1074895 (antisense kT*k[5mC]*k[5mC]*dT*dA*dT*dG*d[5mC]*dT*dG*dA*dA*dG*kT*kT*kT) [compound 1074895] | 60 |

Same assay, conditions: Table 34; Yap1 mRNA as percent of untreated control; 3-10-3 cEt gapmers targeting SEQ ID NO: 1 and 2; single dose

| Substance | YAP1 (% UTC) |
| --- | --- |
| 1075604 (antisense kA*kT*kA*dA*dT*dT*dA*dA*dG*d[5mC]*dT*dA*dT*k[5mC]*kA*k[5mC]) [compound 1075604] | 81 |
| 1075892 (antisense k[5mC]*kA*k[5mC]*d[5mC]*dA*dA*dT*dA*d[5mC]*d[5mC]*dA*dA*dA*kG*kT*k[5mC]) [compound 1075892] | 54 |
| 1074932 (antisense kG*kG*kA*dG*dA*d[5mC]*dT*dA*dT*dA*d[5mC]*dA*dA*k[5mC]*kA*kG) [compound 1074932] | 88 |
| 1074388 (kG*kA*k[5mC]*dT*dT*dG*dG*d[5mC]*dA*dT*d[5mC]*dA*dG*k[5mC]*kT*k[5mC]; antisense) [compound 1074388] | 16 |
| 1075924 (antisense kA*kT*kT*dT*dA*dA*dT*dA*d[5mC]*dT*d[5mC]*dT*d[5mC]*kT*kG*kG) [compound 1075924] | 21 |
| 1076532 (kA*kT*kT*dT*dT*dT*dA*dG*dG*d[5mC]*dA*dG*dA*k[5mC]*kG*k[5mC]; antisense) [compound 1076532] | 12 |
| 1075700 (kG*k[5mC]*k[5mC]*dA*dA*dA*dT*dA*dA*dG*dA*dG*dG*kT*kA*kG; antisense) [compound 1075700] | 22 |

Same assay, conditions: Table 35; Yap1 mRNA as percent of untreated control; 3-10-3 cEt gapmers targeting SEQ ID NO: 1 and 2; single dose

| Substance | YAP1 (% UTC) |
| --- | --- |
| 1074805 (kG*kT*kA*dG*d[5mC]*dA*dA*dA*dG*dT*d[5mC]*dA*d[5mC]*kT*kT*k[5mC]; antisense) [compound 1074805] | 9 |
| 1075125 (k[5mC]*kT*kT*dA*dA*dG*dG*dT*dA*d[5mC]*dA*dA*dG*kG*k[5mC]*kA; antisense) [compound 1075125] | 84 |
| 1074357 (antisense k[5mC]*kG*kA*dG*dG*dG*dA*d[5mC]*dA*d[5mC]*dT*dG*dT*kA*kG*k[5mC]) [compound 1074357] | 12 |
